Biological target: T1, human NEP (Homo sapiens, UniProt P08473)
T1 construct: purchased R&D Systems, Minneapolis, Minn; 1182-ZN
Assay: In vitro enzyme inhibition assay at human NEP (fluorogenic peptide substrate)
Format: biochemical
Settings: recombinant human NEP; substrate Mca-D-Arg-Arg-Leu-Dap-(Dnp)-OH 10 μM; 37° C.; values given as ranges; read-out: pKi values at human NEP (converted)
Procedure: The inhibitory activities of compounds at human and rat neprilysin (EC 3.4.24.11; NEP) and human angiotensin converting enzyme (ACE) were determined using in vitro assays as described below.
Recombinant human NEP and recombinant human ACE were obtained commercially (R&D Systems, Minneapolis, Minn., catalog numbers 1182-ZN and 929-ZN, respectively). The fluorogenic peptide substrate Mca-D-Arg-Arg-Leu-Dap-(Dnp)-OH (Medeiros et al. (1997) Braz. J. Med. Biol. Res. 30:1157-62; Anaspec, San Jose, Calif.) and Abz-Phe-Arg-Lys(Dnp)-Pro-OH (Araujo et al. (2000) Biochemistry 39:8519-8525; Bachem, Torrance, Calif.) were used in the NEP and ACE assays respectively.
The assays were performed in 384-well white opaque plates at 37° C. using the fluorogenic peptide substrates at a concentration of 10 μM in Assay Buffer (NEP: 50 mM HEPES, pH 7.5, 100 mM NaCl, 0.01% polyethylene glycol sorbitan monolaurate (Tween-20), 10 μM ZnSO4; ACE: 50 mM HEPES, pH 7.5, 100 mM NaCl, 0.01% Tween-20, 1 μM ZnSO4).
Test compounds were assayed over the range of concentrations from 10 μM to 20 pM. Test compounds were added to the enzymes and incubated for 30 minute at 37° C. prior to initiating the reaction by the addition of substrate. Reactions were terminated after 20 minutes of incubation at 37° C. by the addition of glacial acetic acid to a final concentration of 3.6% (v/v).
Plates were read on a fluorometer with excitation and emission wavelengths set to 320 nm and 405 nm, respectively Inhibition constants were obtained by nonlinear regression of the data using the equation (GraphPad Software, Inc., San Diego, Calif.): v=v0/[1+(I/K′)] where v is the reaction rate, v0 is the uninhibited reaction rate, I is the inhibitor concentration and K′ is the apparent inhibition constant.
Compounds of the invention were tested in this assay and found to have pKi values at human NEP as follows.

T1 sequence (P08473 whole entry): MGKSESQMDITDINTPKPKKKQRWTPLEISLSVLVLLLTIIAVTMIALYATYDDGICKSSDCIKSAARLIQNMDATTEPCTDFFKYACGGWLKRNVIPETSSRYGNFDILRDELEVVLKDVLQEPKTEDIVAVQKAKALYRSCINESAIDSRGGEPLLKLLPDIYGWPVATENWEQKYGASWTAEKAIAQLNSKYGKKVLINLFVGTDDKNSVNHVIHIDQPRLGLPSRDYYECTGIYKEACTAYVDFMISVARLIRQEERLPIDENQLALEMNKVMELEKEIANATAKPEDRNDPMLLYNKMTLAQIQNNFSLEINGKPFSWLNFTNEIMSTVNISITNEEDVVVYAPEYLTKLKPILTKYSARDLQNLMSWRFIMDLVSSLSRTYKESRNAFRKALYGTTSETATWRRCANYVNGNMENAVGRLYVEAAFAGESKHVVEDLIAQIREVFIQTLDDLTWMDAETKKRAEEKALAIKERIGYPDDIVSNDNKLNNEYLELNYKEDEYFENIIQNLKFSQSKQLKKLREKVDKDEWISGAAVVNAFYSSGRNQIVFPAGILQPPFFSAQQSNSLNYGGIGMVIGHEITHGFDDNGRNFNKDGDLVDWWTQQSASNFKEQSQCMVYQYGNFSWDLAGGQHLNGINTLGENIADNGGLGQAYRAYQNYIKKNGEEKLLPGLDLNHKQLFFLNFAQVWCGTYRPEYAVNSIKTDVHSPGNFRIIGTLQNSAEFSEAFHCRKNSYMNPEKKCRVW

Ki | SMILES
0.00126 to 0.01 µM | O=C(N[C@H](Cc1ccccc1)[C@@H](O)C(=O)O)c1cc(C(=O)O)n(Cc2ccc(F)cc2)n1 [Example 8-9, 5-((1R,2R)-1-Benzyl-2-carboxy-2-hydroxy-ethylcarbamoyl)-2-(4-fluoro-benzyl)-2H-pyrazole-3-carboxylic acid]
0.0126 to 0.1 µM | O=C(N[C@H](Cc1ccccc1Cl)[C@@H](O)C(=O)O)c1cc(-c2cnccn2)[nH]n1 [Example 2-51, (2R,3R)-4-(2-Chloro-phenyl)-2-hydroxy-3-[(5-pyrazin-2-yl-1H-pyrazole-3-carbonyl)-amino]-butyric acid]
0.00126 to 0.01 µM | O=C(N[C@H](Cc1ccccc1)[C@@H](O)C(=O)O)c1cc(C(=O)O)n(Cc2ccc(Cl)cc2)n1 [Example 8-6, 5-((1R,2R)-1-Benzyl-2-carboxy-2-hydroxy-ethylcarbamoyl)-2-(4-chloro-benzyl)-2H-pyrazole-3-carboxylic acid]
0.0126 to 0.1 µM | O=C(N[C@H](Cc1ccccc1Cl)[C@@H](O)C(=O)O)c1cc(-c2ccccc2O)[nH]n1 [Example 2-50, (2R,3R)-4-(2-Chloro-phenyl)-2-hydroxy-3-{[5-(2-hydroxy-phenyl)-1H-pyrazole-3-carbonyl]-amino}-butyric acid]
0.0126 to 0.1 µM | Cn1nc(C(=O)N[C@H](Cc2ccccc2Cl)[C@@H](O)C(=O)O)cc1-c1ccccc1 [Example 2-58, (2R,3R)-4-(2-Chloro-phenyl)-2-hydroxy-3-[(1-methyl-5-phenyl-1H-pyrazole-3-carbonyl)-amino]-butyric acid]
0.0126 to 0.1 µM | Cc1ccc(Cn2nc(C(=O)N[C@@H](CC(=O)O)Cc3ccccc3Cl)cc2C(=O)O)cc1 [Example 11-5, 5-[(R)-2-Carboxy-1-(2-chloro-benzyl)-ethylcarbamoyl]-2-(4-methyl-benzyl)-2H-pyrazole-3-carboxylic acid]
0.00126 to 0.01 µM | O=C(N[C@H](Cc1ccccc1Cl)[C@@H](O)C(=O)O)c1cc(C(=O)O)n(Cc2cccc(Cl)c2)n1 [Example 2-10, 5-[(1R,2R)-2-Carboxy-1-(2-chloro-benzyl)-2-hydroxy-ethylcarbamoyl]-2-(3-chloro-benzyl)-2H-pyrazole-3-carboxylic acid]
≤ 0.001 µM | O=C(N[C@H](Cc1ccccc1Cl)[C@@H](O)C(=O)O)c1cc(C(=O)O)n(Cc2ccc(OC(F)F)cc2)n1 [Example 2-26, 5-[(1R,2R)-2-Carboxy-1-(2-chloro-benzyl)-2-hydroxy-ethylcarbamoyl]-2-(4-difluoromethoxy-benzyl)-2H-pyrazole-3-carboxylic acid]
0.0126 to 0.1 µM | O=C(N[C@H](Cc1ccccc1Cl)[C@@H](O)C(=O)O)c1cc(C(=O)O)n(Cc2ccc(Cl)c(SC(F)(F)F)c2)n1 [Example 2-9, 5-[(1R,2R)-2-Carboxy-1-(2-chloro-benzyl)-2-hydroxy-ethylcarbamoyl]-2-(4-chloro-3-trifluoromethylsulfanyl-benzyl)-2H-pyrazole-3-carboxylic acid]
0.0126 to 0.1 µM | COc1cccc(Cn2nc(C(=O)N[C@@H](CC(=O)O)Cc3ccccc3Cl)cc2C(=O)O)c1 [Example 11-1, 5-[(R)-2-Carboxy-1-(2-chloro-benzyl)-ethylcarbamoyl]-2-(3-methoxy-benzyl)-2H-pyrazole-3-carboxylic acid]
≤ 0.001 µM | COc1c(F)c(F)c(Cn2nc(C(=O)N[C@H](Cc3ccccc3Cl)[C@@H](O)C(=O)O)cc2C(=O)O)c(F)c1F [Example 2-35, 5-[(1R,2R)-2-Carboxy-1-(2-chloro-benzyl)-2-hydroxy-ethylcarbamoyl]-2-(2,3,5,6-tetrafluoro-4-methoxy-benzyl)-2H-pyrazole-3-carboxylic acid]
0.0126 to 0.1 µM | CC(c1ccccc1)n1nc(C(=O)N[C@H](Cc2ccccc2Cl)[C@@H](O)C(=O)O)cc1C(=O)O (stereo partly drawn) [Example 2-60, 5-[(1R,2R)-2-Carboxy-1-(2-chloro-benzyl)-2-hydroxy-ethylcarbamoyl]-2-(1-phenyl-ethyl)-2H-pyrazole-3-carboxylic acid]
0.0126 to 0.1 µM | O=C(N[C@H](Cc1ccccc1C(F)(F)F)[C@@H](O)C(=O)O)c1cc(C(=O)NC2CC2)[nH]n1 [Example 6-6, (2R,3R)-3-[(5-Cyclopropylcarbamoyl-1H-pyrazole-3-carbonyl)-amino]-2-hydroxy-4-(2-trifluoromethyl-phenyl)-butyric acid]
0.0126 to 0.1 µM | CC(=O)Nc1cccc(-c2cc(C(=O)N[C@H](Cc3ccccc3Cl)[C@@H](O)C(=O)O)n[nH]2)c1 [Example 2-47, (2R,3R)-3-{[5-(3-Acetylamino-phenyl)-1H-pyrazole-3-carbonyl]-amino}-4-(2-chloro-phenyl)-2-hydroxy-butyric acid]
0.0126 to 0.1 µM | O=C(N[C@H](Cc1ccccc1Cl)[C@@H](O)C(=O)O)c1cc(C(=O)O)n(Cc2ccc(Cl)c(C(F)(F)F)c2)n1 [Example 2-18, 5-[(1R,2R)-2-Carboxy-1-(2-chloro-benzyl)-2-hydroxy-ethylcarbamoyl]-2-(4-chloro-3-trifluoromethyl-benzyl)-2H-pyrazole-3-carboxylic acid]
0.0126 to 0.1 µM | CCOc1ncc(Cn2nc(C(=O)N[C@H](Cc3ccccc3)[C@@H](O)C(=O)O)cc2C2CC2)cn1 [Example 8-24, (2R,3R)-3-{[5-Cyclopropyl-1-(2-ethoxy-pyrimidin-5-ylmethyl)-1H-pyrazole-3-carbonyl]-amino}-2-hydroxy-4-phenyl-butyric acid]
≤ 0.001 µM | O=C(N[C@H](Cc1ccccc1Cl)[C@@H](O)C(=O)O)c1cc(C(=O)O)n(Cc2ccc(Br)cc2)n1 [Example 2-41, 2-(4-Bromo-benzyl)-5-[(1R,2R)-2-carboxy-1-(2-chloro-benzyl)-2-hydroxy-ethylcarbamoyl]-2H-pyrazole-3-carboxylic acid]
0.0126 to 0.1 µM | O=C(N[C@H](Cc1ccccc1Cl)[C@@H](O)C(=O)O)c1cc(O)n(Cc2ccc(Cl)cc2F)n1 [Example 2-67, (2R,3R)-3-{[1-(4-Chloro-2-fluoro-benzyl)-5-hydroxy-1H-pyrazole-3-carbonyl]-amino}-4-(2-chloro-phenyl)-2-hydroxy-butyric acid]
0.00126 to 0.01 µM | Cc1ccc(Cn2nc(C(=O)N[C@H](Cc3ccccc3Cl)[C@@H](O)C(=O)O)cc2C(=O)O)cc1 [Example 2-40, 5-[(1R,2R)-2-Carboxy-1-(2-chloro-benzyl)-2-hydroxy-ethylcarbamoyl]-2-(4-methyl-benzyl)-2H-pyrazole-3-carboxylic acid]
≤ 0.001 µM | COc1c(F)c(F)c(Cn2nc(C(C)=O)cc2C(=O)N[C@H](Cc2ccccc2Cl)[C@@H](O)C(=O)O)c(F)c1F [Example 3-6, (2R,3R)-3-{[5-Acetyl-2-(2,3,5,6-tetrafluoro-4-methoxy-benzyl)-2H-pyrazole-3-carbonyl]-amino}-4-(2-chloro-phenyl)-2-hydroxy-butyric acid]
0.0126 to 0.1 µM | O=C(O)C[C@@H](Cc1ccccc1Cl)NC(=O)c1cc(C(=O)O)n(CC(=O)O)n1 [Example 11-9, 5-[(R)-2-Carboxy-1-(2-chloro-benzyl)-ethylcarbamoyl]-2-carboxymethyl-2H-pyrazole-3-carboxylic acid]
0.0126 to 0.1 µM | O=C(N[C@H](Cc1ccccc1)[C@@H](O)C(=O)O)c1cc([N+](=O)[O-])[nH]n1 [Example 8-11, (2R,3R)-2-Hydroxy-3-[(5-nitro-1H-pyrazole-3-carbonyl)-amino]-4-phenyl-butyric acid]
≤ 0.001 µM | O=C(N[C@H](Cc1ccccc1Cl)[C@@H](O)C(=O)O)c1cc(C(=O)O)n(Cc2ccc(OC(F)(F)F)cc2)n1 [Example 2-33, 5-[(1R,2R)-2-Carboxy-1-(2-chloro-benzyl)-2-hydroxy-ethylcarbamoyl]-2-(4-trifluoromethoxy-benzyl)-2H-pyrazole-3-carboxylic acid]
0.0126 to 0.1 µM | O=C(N[C@H](Cc1ccccc1C(F)(F)F)[C@@H](O)C(=O)O)c1cc(C(=O)NCCc2c[nH]cn2)[nH]n1 [Example 6-4, (2R,3R)-2-Hydroxy-3-({5-[2-(1H-imidazol-4-yl)-ethylcarbamoyl]-1H-pyrazole-3-carbonyl}-amino)-4-(2-trifluoromethyl-phenyl)-butyric acid]
0.00126 to 0.01 µM | O=C(N[C@H](Cc1ccccc1C(F)(F)F)[C@@H](O)C(=O)O)c1cc(C(=O)N2CC[C@H](C(=O)O)C2)[nH]n1 [Example 6-11, (S)-1-{5-[(1R,2R)-2-Carboxy-2-hydroxy-1-(2-trifluoromethyl-benzyl)-ethylcarbamoyl]-2H-pyrazole-3-carbonyl}-pyrrolidine-3-carboxylic acid]
0.0126 to 0.1 µM | O=C(N[C@H](Cc1ccccc1Cl)[C@@H](O)C(=O)O)c1cc(-c2ccccc2C(F)(F)F)n[nH]1 [Example 3-2, (2R,3R)-4-(2-Chloro-phenyl)-2-hydroxy-3-{[5-(2-trifluoromethyl-phenyl)-2H-pyrazole-3-carbonyl]-amino}-butyric acid]

— patent US8993752B2, “Neprilysin inhibitors” (Theravance Biopharma R&D IP, LLC, priority 2011, dated 2015)
